Columns and labels:
Assay in all cases: AUC of viability dose-response curve (% viability x log10 dose units); higher = less sensitive
Details in all cases: 48 h
NOMO1 = system: NOMO1
Outline: (§1)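 Leukemia cells adapted to each medium were seeded in 1536-well plates (500 or 1000 cells/well). They were dosed with library compounds in DMSO at 11 threefold doses, 47 μM to 0.79 nM, for 48 h at 37°C. CellTiter-Glo One luminescence was normalised per plate to DMSO and cell-free wells. Area under the curve was integrated by trapezoidal rule over log10 doses on a four-parameter log-logistic fit; curves exceeding full viability were scaled and curves failing quality control removed.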

P12-Ichikawa = system: P12-Ichikawa
Outline: as §1

SEM cells = system: SEM cells
Outline: as §1

[1] = RPMI 5 mM glucose + 10% dialyzed FBS

Row | SMILES | AUC of viability dose-response curve (NOMO1; HPLM + 10% dialyzed FBS) | AUC of viability dose-response curve (NOMO1; RPMI 5 mM glucose + 10% FBS) | AUC of viability dose-response curve (NOMO1; [1]) | AUC of viability dose-response curve (P12-Ichikawa; HPLM + 10% dialyzed FBS) | AUC of viability dose-response curve (P12-Ichikawa; RPMI 5 mM glucose + 10% FBS) | AUC of viability dose-response curve (P12-Ichikawa; [1]) | AUC of viability dose-response curve (SEM cells; HPLM + 10% dialyzed FBS) | AUC of viability dose-response curve (SEM cells; RPMI 5 mM glucose + 10% FBS) | AUC of viability dose-response curve (SEM cells; [1])
1 | CNC(=O)CN1CCC(Oc2cc3c(Nc4cccc(Cl)c4F)ncnc3cc2OC)CC1 | 320 | 302 | 325 | 364 | 356 | 374 | 457 | 469 | 469
2 | CCCC1OC2C[C@H]3[C@@H]4CCC5=CC(=O)C=C[C@]5(C)[C@H]4C(O)C[C@]3(C)[C@]2(C(=O)CO)O1 (stereo partly specified) | 446 | 460 | 458 | 324 | 290 | 252 | 317 | 304 | 311
3 | CC(C)C[C@H](NC(=O)[C@@H](O)[C@H](N)Cc1ccccc1)C(=O)O | 451 | 447 | 439 | 463 | 447 | 452 | 453 | 455 | 454
4 | NC(=O)OCC(COC(N)=O)c1ccccc1 | 434 | 465 | 456 | 465 | 460 | 465 | 455 | 448 | 471
